Measured values reported in EP4745134A1 (Jiangsu Yahong Meditech Co., Ltd., priority 2023, dated 2025).
pIC50: −log10 of the molar value.

Experiments:
PRMT5-MTA = PRMT5-MTA (Homo sapiens, UniProt O14744); assay: Enzymatic inhibitory activity against PRMT5-MTA (AlphaScreen); type: biochemical; conditions: read-out: IC50
Method in brief: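 PRMT5/[…] (1 nM) was preincubated for 30 min at room temperature with 1 µM […] and 2.5 µM SAM, then exposed to compound (10-point, 3-fold from 1000 nM) for 15 min at 23 °C. Histone H4 substrate (5 nM) was added and reacted for 45 min at 23 °C. Symmetric dimethyl-R3 H4 was detected by AlphaScreen and IC50 calculated.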

HCT116 MTAP KO cells = assay: Inhibitory activity against cell proliferation (CellTiter Glo, 6 days), HCT116 MTAP KO; type: cell-based; conditions: for pIC50: Homo sapiens, HCT-116, 144 h, HCT116 MTAP KO cells, 6 days, CellTiter Glo, read-out: HCT116 MTAP KO IC50; for Selectivity HCT 116-WT/ HCT116 MTAP KO: ratio of IC50 HCT116-WT / HCT116 MTAP KO
Method in brief: (§1)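 Viability IC50s come from CellTiter Glo luminescence after 6 days' exposure to compound (8 concentrations, 4-fold steps, top 10000 nM), relative to DMSO wells. Cells were MTAP-KO or WT HCT116, seeded at 250 per well in McCoy's 5A with 10% FBS and incubated overnight before dosing.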

HCT116-WT cells = assay: Inhibitory activity against cell proliferation (CellTiter Glo, 6 days), HCT116-WT; type: cell-based; conditions: 144 h, HCT116-WT cells, 6 days, CellTiter Glo; read-out: HCT116-WT IC50
Method in brief: as §1

PRMT5-MTA, sequence (O14744 whole entry): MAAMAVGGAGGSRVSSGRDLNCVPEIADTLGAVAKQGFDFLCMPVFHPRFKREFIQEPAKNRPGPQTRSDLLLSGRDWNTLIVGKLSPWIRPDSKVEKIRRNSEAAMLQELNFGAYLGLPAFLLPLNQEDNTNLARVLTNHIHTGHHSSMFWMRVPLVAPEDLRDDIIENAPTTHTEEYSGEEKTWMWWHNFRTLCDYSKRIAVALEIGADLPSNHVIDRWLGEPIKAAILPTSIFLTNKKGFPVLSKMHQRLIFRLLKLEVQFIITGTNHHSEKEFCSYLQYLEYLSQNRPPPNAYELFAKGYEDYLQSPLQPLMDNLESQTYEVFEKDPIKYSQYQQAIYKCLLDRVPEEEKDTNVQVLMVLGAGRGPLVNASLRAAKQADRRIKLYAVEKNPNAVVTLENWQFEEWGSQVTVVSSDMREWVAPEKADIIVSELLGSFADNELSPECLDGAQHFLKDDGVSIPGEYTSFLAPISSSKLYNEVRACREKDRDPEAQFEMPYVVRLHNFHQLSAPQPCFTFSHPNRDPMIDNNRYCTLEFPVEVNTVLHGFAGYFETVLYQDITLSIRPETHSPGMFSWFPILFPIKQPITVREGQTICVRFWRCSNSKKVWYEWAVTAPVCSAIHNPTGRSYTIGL
PRMT5-MTA, sequence (Q9BQA1 whole entry partner): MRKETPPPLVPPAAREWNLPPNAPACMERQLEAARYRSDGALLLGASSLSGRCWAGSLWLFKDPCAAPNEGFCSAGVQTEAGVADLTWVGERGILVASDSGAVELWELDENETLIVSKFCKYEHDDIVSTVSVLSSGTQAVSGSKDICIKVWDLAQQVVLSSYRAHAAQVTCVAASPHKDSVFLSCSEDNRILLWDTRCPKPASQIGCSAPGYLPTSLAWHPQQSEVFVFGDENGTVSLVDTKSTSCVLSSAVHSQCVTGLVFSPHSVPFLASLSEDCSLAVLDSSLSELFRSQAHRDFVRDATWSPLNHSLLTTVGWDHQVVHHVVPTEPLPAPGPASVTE

| SMILES | pIC50 (PRMT5-MTA) | pIC50 (HCT116 MTAP KO cells) | Selectivity HCT 116-WT/ HCT116 MTAP KO (HCT116 MTAP KO cells) | pIC50 (HCT116-WT cells) |
| --- | --- | --- | --- | --- |
| Cn1ncc2c(N)nc3cc(Cl)c(C(=O)N4CC(C(F)(F)F)CN4c4cccc(F)n4)cc3c21 (stereo not drawn) [Example 353, (4-amino-7-chloro-1-methyl-1H-pyrazolo [4,3-c]quinolin-8-yl)(2-(6-fluoropyridin-2-yl)-4-(trifluoromethyl)pyrazolidin-1-yl) methanone] | 8.20 | 6.97 | 16.81 | 5.74 |
| Cc1cc2nc(N)c3ccncc3c2cc1C(=O)N1CC(C)CN1c1ncccc1F (stereo not drawn) [Example 502, (5-amino-8-methylbenzo[C] [2,6]naphthyridin-9-yl)(2-(3-fluoropyridin-2-yl)-4-methylpyrazolidin-1-yl)methanone] | 8.28 | 6.85 | 10.79 | 5.82 |
| Cc1cc2cc(C(=O)N(Cc3ccc(C(F)(F)F)cn3)N(C)c3ncc(Br)cn3)ccc2nc1N [Example 50, 2-amino-N'-(5-bromopyrimidin-2-yl)-N', 3-dimethyl-N-((5-(trifluoromethyl)pyridin-2-yl)methyl)quinoline-6-carbohydrazide] | 8.68 | 6.66 | 17.33 | 5.42 |
| Cc1cc2cc(C(=O)N(Cc3ccc(-c4cccnc4)cn3)N(C)c3ncccn3)ccc2nc1N [Example 172, N-([3,3'-bipyridine]-6-ylmethyl)-2-amino -N',3-dimethyl-N'-(pyrimidin-2-yl)quinoline-6-carbohydrazide] | 8.68 | 7.62 | 73.08 | 5.76 |
| CC1CN(C(=O)c2ccc3nc(N)c4cnn(C)c4c3c2)N(c2ncccc2F)C1 (stereo not drawn) [Example 367, (4-amino-1-methyl-1H-pyrazolo[4,3-c]quinolin-8-yl)(2-(3-fluoropyridin-2-yl)-4-methylpyrazolidin-1-yl)methanone] | 8.39 | 6.97 | 49.62 | 5.28 |
| Cc1cc2nc(N)c3cnn(C)c3c2cc1C(=O)N1C[C@@H](C)CN1c1ncccc1F (single isomer, unassigned) [Example 464] | 8.51 | 7.77 | 64.06 | 5.96 |
| Cc1cc2cc(C(=O)N(Cc3ccc(C(F)F)cn3)N(C)c3ncccn3)ccc2nc1N [Example 273, 2-amino-N-((5-(difluoromethyl)pyridin-2-yl)methyl)-N',3-dimethyl-N'-(pyrimidin-2-yl)quinoline-6-carbohydrazide] | 8.55 | 7.11 | 29.27 | 5.64 |
| COc1cnc(N(C)N(Cc2ccc(C(F)(F)F)cn2)C(=O)c2ccc3nc(N)c(C)cc3c2)nc1 [Example 39, 2-amino-N'-(5-methoxypyrimidin-2-yl)-N',3-dimethyl-N-((5-(trifluoromethyl)pyridin-2-yl)methyl)quinoline-6-carbohydrazide] | 8.57 | 6.63 | 15.95 | 5.43 |
| Cc1cc2nc(N)c3cnn(C)c3c2cc1C(=O)N1CC(C)CN1c1ccccn1 (stereo not drawn) [Example 368, (4-amino-1,7-dimethyl-1H-pyrazolo[4,3-c]quinolin-8-yl)(4-methyl-2-(pyridin-2-yl)pyrazolidin-1-yl)methanone] | 8.33 | 7.43 | 78.51 | 5.54 |
| COC1CN(C(=O)c2cc3c(cc2Cl)nc(N)c2cnn(C)c23)N(c2ccccc2F)C1 (stereo not drawn) [Example 437, (4-amino-7-chloro-1-methyl-1H-pyrazolo [4,3-c]quinolin-8-yl)(2-(2-fluorophenyl)-4-methoxypyrazolidin-1-yl)methanone] | 8.33 | 7.89 | 18.62 | 6.62 |
| Cc1cc2cc(C(=O)N(Cc3ccc(-c4ccc(N5CCCC5)nc4)cn3)N(C)c3ncccn3)ccc2nc1N [Example 211, 2-amino-N',3-dimethyl-N'-(pyrimidin-2-yl)-N-((6'-(pyrrolidin-1-yl)-[3,3'-bipyridine]-6-yl)methyl)quinoline-6-carbohydrazide] | 8.64 | 7.08 | 18.96 | 5.80 |
| Cc1cc2cc(C(=O)N(Cc3ccc(-c4scnc4C(F)(F)F)cn3)N(C)c3ncccn3)ccc2nc1N [Example 237, 2-amino-N',3-dimethyl-N'-(pyrimidin-2-yl)-N-((5-(4-(trifluoromethyl)thiazol-5-yl)pyridin-2-yl)methyl)quinoline-6-carbohydrazide] | 8.10 | 7.49 | 36.97 | 5.93 |
